In patent US10597388B2, “Pyridazinone herbicides” (FMC CORPORATION, priority 2014, dated 2020):

Experiments:
Type in all cases: in vivo
corn (Zea mays) = test: Test A greenhouse herbicide test, pre- and postemergence; conditions: Postemergence; for Plant response rating, Corn: 125 g ai/ha, 0 to 100 scale where 0 is no effect and 100 is complete control; for Corn plant response rating: 500 g ai/ha, 0 to 100 scale, 0 is no effect, 100 is complete control
Method in brief: (§1)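 Seeds sown in loam–sand blend got a preemergence directed soil spray of compound in non-phytotoxic solvent with surfactant. Postemergence treatment was given at 2–10 cm, one- to two-leaf stage. After ~10 d in greenhouse, injury was rated visually vs untreated controls, 0 (no effect) to 100 (complete control).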

[1] = test system: foxtail, giant (giant foxtail, Setaria faberii); test: as above
Method in brief: as §1

kochia (Kochia scoparia) = test: as above
Method in brief: as §1

[2] = test system: pigweed (Amaranthus retroflexus); test: as above
Method in brief: as §1

[3] = test system: ragweed (common ragweed, Ambrosia elatior); test: as above
Method in brief: as §1

[4] = test system: ryegrass, Italian (Italian ryegrass, Lolium multiflorum); test: as above
Method in brief: as §1

[5] = test system: wheat (Triticum aestivum); test: as above; conditions: Postemergence; for Plant response rating, Wheat: 125 g ai/ha, 0 to 100 scale where 0 is no effect and 100 is complete control; for Wheat plant response rating: 500 g ai/ha, 0 to 100 scale, 0 is no effect, 100 is complete control
Method in brief: as §1

[6] = test system: galium (catchweed bedstraw, Galium aparine); test: Test C greenhouse herbicide test, pre- and postemergence
Method in brief: (§2)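 Preemergence: seeds sown in a loam soil–sand blend and sprayed with test chemicals in a non-phytotoxic solvent mixture containing surfactant. Postemergence: plants grown in peat-based medium and treated at 2 to 18 cm (1- to 4-leaf stage). After 13 to 15 d in a greenhouse, injury was visually rated 0–100 against controls.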

[7] = test system: nutsedge, yellow (yellow nutsedge, Cyperus esculentus); test: as above
Method in brief: as §2

[8] = test system: oilseed rape (Brassica napus); test: as above
Method in brief: as §2

[9] = test system: velvetleaf (Abutilon theophrasti); test: as above
Method in brief: as §2

[10] = Postemergence, 125 g ai/ha, 0 to 100 scale where 0 is no effect and 100 is complete control
[11] = Postemergence, 500 g ai/ha, 0 to 100 scale, 0 is no effect, 100 is complete control
[12] = Preemergence, 125 g ai/ha, 0 to 100 scale where 0 is no effect and 100 is complete control
[13] = Preemergence, 500 g ai/ha, 0 to 100 scale where 0 is no effect and 100 is complete control
[14] = Postemergence, 125 g ai/ha, scale 0 to 100, 0 is no effect, 100 is complete control
[15] = Postemergence, 250 g ai/ha, scale 0 to 100, 0 no effect, 100 complete control, 13 to 15 d
[16] = Preemergence, 31 g ai/ha, scale 0 to 100, 0 is no effect, 100 is complete control
[17] = Preemergence, 62 g ai/ha, scale 0 to 100, 0 is no effect, 100 is complete control
[18] = Preemergence, 125 g ai/ha, scale 0 to 100, 0 is no effect, 100 is complete control
[19] = Preemergence, 250 g ai/ha, scale 0 to 100 (0 no effect, 100 complete control)
[20] = postemergence, 62 g ai/ha, scale 0 to 100, 0 no effect, 100 complete control

Cc1cc(C)c2sc(C)c(-c3c(OC(=O)OCCCl)c(C)nn(C)c3=O)c2c1 [Compound 85]
100: Foxtail, Giant plant response rating [1, 12] | Plant response rating, Foxtail, Giant [1, 13] | Pigweed plant response rating [2, 11] | Pigweed plant response rating [2, 12] | Plant response rating, Pigweed [2, 13] | Ryegrass, Italian plant response rating [4, 12] | Plant response rating, Ryegrass, Italian [4, 13] | Plant response rating, Galium [6, 14] | Plant response rating, Galium [6, 15] | Galium plant response rating [6, 20]
50: Plant response rating, Velvetleaf [9, 16]
90: Plant response rating, Foxtail, Giant [1, 10] | Foxtail, Giant plant response rating [1, 11] | Plant response rating, Pigweed [2, 10] | Plant response rating, Ragweed [3, 10] | Ragweed plant response rating [3, 11] | Ragweed plant response rating [3, 12] | Plant response rating, Ragweed [3, 13] | Plant response rating, Ryegrass, Italian [4, 10] | Ryegrass, Italian plant response rating [4, 11] | Plant response rating, Galium [6, 16] | Plant response rating, Galium [6, 17] | Plant response rating, Nutsedge, Yellow [7, 15] | Oilseed Rape plant response rating [8, 19] | Velvetleaf plant response rating [9, 19]
95: Plant response rating, Galium [6, 18] | Galium plant response rating [6, 19] | Plant response rating, Nutsedge, Yellow [7, 14] | Plant response rating, Velvetleaf [9, 15]
40: Plant response rating, Oilseed Rape [8, 18]
80: Nutsedge, Yellow plant response rating [7, 19] | Plant response rating, Velvetleaf [9, 17]
5: Plant response rating, Oilseed Rape [8, 16]
75: Plant response rating, Nutsedge, Yellow [7, 18]
15: Plant response rating, Oilseed Rape [8, 15]
30: Plant response rating, Kochia (kochia (Kochia scoparia); [10]) | Plant response rating, Kochia (kochia (Kochia scoparia); [13])
0: Plant response rating, Corn (corn (Zea mays)) | Corn plant response rating (corn (Zea mays)) | Kochia plant response rating (kochia (Kochia scoparia); [12]) | Plant response rating, Wheat [5] | Wheat plant response rating [5]
10: Plant response rating, Oilseed Rape [8, 14] | Oilseed Rape plant response rating [8, 20]
70: Kochia plant response rating (kochia (Kochia scoparia); [11]) | Plant response rating, Nutsedge, Yellow [7, 16]
85: Plant response rating, Nutsedge, Yellow [7, 17] | Nutsedge, Yellow plant response rating [7, 20] | Plant response rating, Oilseed Rape [8, 17] | Plant response rating, Velvetleaf [9, 14] | Plant response rating, Velvetleaf [9, 18] | Velvetleaf plant response rating [9, 20]

C#CCOC(=O)Oc1c(C)nn(C)c(=O)c1-c1c(C)sc2ccc(C)cc12 [Compound 87]
85: Plant response rating, Nutsedge, Yellow [7, 15] | Plant response rating, Nutsedge, Yellow [7, 18] | Plant response rating, Oilseed Rape [8, 18] | Plant response rating, Velvetleaf [9, 17] | Velvetleaf plant response rating [9, 20]
20: Plant response rating, Oilseed Rape [8, 15]
95: Plant response rating, Galium [6, 14] | Plant response rating, Galium [6, 16] | Plant response rating, Galium [6, 17] | Galium plant response rating [6, 20]
50: Plant response rating, Oilseed Rape [8, 14] | Oilseed Rape plant response rating [8, 20]
30: Plant response rating, Oilseed Rape [8, 16] | Plant response rating, Oilseed Rape [8, 17]
35: Plant response rating, Nutsedge, Yellow [7, 17]
80: Foxtail, Giant plant response rating [1, 11] | Foxtail, Giant plant response rating [1, 12] | Kochia plant response rating (kochia (Kochia scoparia); [12]) | Plant response rating, Pigweed [2, 10] | Plant response rating, Ragweed [3, 10] | Plant response rating, Ragweed [3, 13] | Plant response rating, Ryegrass, Italian [4, 10] | Ryegrass, Italian plant response rating [4, 11] | Plant response rating, Nutsedge, Yellow [7, 14] | Nutsedge, Yellow plant response rating [7, 19] | Nutsedge, Yellow plant response rating [7, 20] | Oilseed Rape plant response rating [8, 19]
70: Plant response rating, Foxtail, Giant [1, 10] | Ragweed plant response rating [3, 12]
55: Plant response rating, Velvetleaf [9, 16]
100: Plant response rating, Foxtail, Giant [1, 13] | Pigweed plant response rating [2, 12] | Plant response rating, Pigweed [2, 13] | Plant response rating, Ryegrass, Italian [4, 13]
10: Plant response rating, Nutsedge, Yellow [7, 16]
98: Plant response rating, Galium [6, 15] | Plant response rating, Galium [6, 18] | Galium plant response rating [6, 19]
0: Plant response rating, Corn (corn (Zea mays)) | Corn plant response rating (corn (Zea mays)) | Plant response rating, Wheat [5] | Wheat plant response rating [5]
90: Plant response rating, Kochia (kochia (Kochia scoparia); [10]) | Kochia plant response rating (kochia (Kochia scoparia); [11]) | Plant response rating, Kochia (kochia (Kochia scoparia); [13]) | Pigweed plant response rating [2, 11] | Ragweed plant response rating [3, 11] | Ryegrass, Italian plant response rating [4, 12] | Plant response rating, Velvetleaf [9, 14] | Plant response rating, Velvetleaf [9, 15] | Plant response rating, Velvetleaf [9, 18] | Velvetleaf plant response rating [9, 19]

CC(=O)Oc1c(C)nn(C)c(=O)c1-c1ccc(F)c2ccccc12 [Compound 90]
85: Plant response rating, Nutsedge, Yellow [7, 15] | Plant response rating, Nutsedge, Yellow [7, 18] | Plant response rating, Velvetleaf [9, 16]
35: Plant response rating, Oilseed Rape [8, 17]
20: Plant response rating, Corn (corn (Zea mays)) | Plant response rating, Wheat [5]
45: Plant response rating, Nutsedge, Yellow [7, 17]
98: Plant response rating, Velvetleaf [9, 14] | Plant response rating, Velvetleaf [9, 15]
70: Kochia plant response rating (kochia (Kochia scoparia); [12])
80: Plant response rating, Foxtail, Giant [1, 10] | Nutsedge, Yellow plant response rating [7, 20]
30: Corn plant response rating (corn (Zea mays)) | Wheat plant response rating [5] | Plant response rating, Oilseed Rape [8, 16]
50: Foxtail, Giant plant response rating [1, 12] | Plant response rating, Oilseed Rape [8, 18]
75: Velvetleaf plant response rating [9, 20]
100: Foxtail, Giant plant response rating [1, 11] | Plant response rating, Foxtail, Giant [1, 13] | Plant response rating, Kochia (kochia (Kochia scoparia); [10]) | Kochia plant response rating (kochia (Kochia scoparia); [11]) | Plant response rating, Kochia (kochia (Kochia scoparia); [13]) | Plant response rating, Pigweed [2, 10] | Pigweed plant response rating [2, 11] | Pigweed plant response rating [2, 12] | Plant response rating, Pigweed [2, 13] | Plant response rating, Ragweed [3, 10] | Ragweed plant response rating [3, 11] | Plant response rating, Ragweed [3, 13] | Plant response rating, Ryegrass, Italian [4, 10] | Ryegrass, Italian plant response rating [4, 11] | Ryegrass, Italian plant response rating [4, 12] | Plant response rating, Ryegrass, Italian [4, 13]
95: Plant response rating, Galium [6, 14] | Plant response rating, Galium [6, 15] | Galium plant response rating [6, 20] | Plant response rating, Velvetleaf [9, 18] | Velvetleaf plant response rating [9, 19]
55: Plant response rating, Nutsedge, Yellow [7, 16]
5: Plant response rating, Oilseed Rape [8, 15]
0: Plant response rating, Oilseed Rape [8, 14] | Oilseed Rape plant response rating [8, 20]
90: Ragweed plant response rating [3, 12] | Plant response rating, Nutsedge, Yellow [7, 14] | Nutsedge, Yellow plant response rating [7, 19] | Oilseed Rape plant response rating [8, 19] | Plant response rating, Velvetleaf [9, 17]
